Measurements published in US9408853B2, “Iridium/rhodium anti-cancer compounds” (University of Warwick, priority 2010, dated 2016).

Legend:
[1] = system: MCF-7 cancer cell line; settings: cited from earlier work
[2] = system: A2780 human ovarian cancer cells; assay: Cytotoxicity testing of rhodium complexes; assay type: cell-based
Procedure: Cytotoxicity testing in A2780 human ovarian cancer cells was performed by Dr Ana Maria Pizarro Arranz at the University of Warwick.

[3] = system: ca. 60 cell lines within nine tumour type subpanels; assay type: cell-based
Description: (§1) Six complexes, [(η^5-C5Me4C6H4C6H5)Ir(bpy)Cl]PF6 (ZL25, bpy=2,2′-bipyridine), [(η^5-C5Me4C6H5)Ir(phen)Cl]PF6 (ZL33, phen=1,10-phenanthroline), [(η^5-C5Me4C6H4C6H5) Ir(pico)Cl] (ZL43, pico=picolinate), [(η^5-C5Me5)Ir(2-phpy)Cl] (ZL47), [(η^5-C5Me4C6H4C6H5)Ir(2-phPY)(D2O)Cl] (ZL49) and [(η^5-C5Me4C6H4C6H5) Ir(phen)Cl]PF6 (ZL54), were selected by Developmental Therapeutics Program of National Cancer Institute (NCI, U.S.A.) for in vitro screening test, in which 5 complexes except ZL43 are selected for further testing. The five complexes were tested on ca. 60 cell lines within nine tumour type subpanels at five concentrations ranging from 0.01 to 100 μM.

[4] = system: 9-ethylguanine (9-EtG); assay: Interactions with nucleobases: 9-EtG adduct formation (1H NMR); assay type: binding; settings: 24 h; ca. 1.0 mM, 1 mol equiv 9-EtG, 20% MeOD-d4/80% D2O, 310 K
Procedure: Interactions with Nucleobases. The reaction of ZL01, ZL03, ZL04, ZL07, ZL25, ZL33, ZL37, ZL38, ZL43 and ZL54 and ZL33A with nucleobases typically involved addition of a solution containing 1-2 mol equiv of nucleobase in D2O, to an equilibrium solution of ZL01, ZL03, ZL04, ZL07, ZL25, ZL33, ZL37, ZL38, ZL43, ZL54 and ZL33A in a solution of 5% MeOD-d4/95% D2O (v/v). ^1H NMR spectra of these solutions were recorded at 310 K after various time intervals.
Since DNA is a potential target site for transition metal anticancer complexes,^18 nucleobase binding reactions of compounds ZL01, ZL03, ZL04, ZL07, ZL25, ZL33, ZL33A, ZL37, ZL38, ZL43 and ZL54 with nucleobase models 9-ethylguanine (9-EtG) and 9-ethyladenine (9-EtA), were investigated. Solutions of ZL01, ZL03, ZL04, ZL07, ZL25, ZL33, ZL37, ZL38, ZL43 and ZL54 (1 mM) (containing an equilibrium mixture of these complexes and their respective aqua adducts) with 1 mol equivalent of 9-EtG or 9-EtA in D2O were prepared, and ^1H NMR spectra were recorded at different time intervals.
Interactions with Nucleobases. Since DNA is a potential target site for transition metal anticancer complexes,^23 the binding of 9-ethylguanine (9-EtG) to complexes ZL47, ZL49, ZL69, ZL74 and ZL107 was studied.

[5] = system: colon COLO 205; assay: NCI screen, single cell line; assay type: cell-based
Description: as §1

[6] = system: breast MDA-MB-468; assay: NCI screen, single cell line; assay type: cell-based
Description: as §1

[7] = system: melanoma SK-MEL-5; assay: NCI screen, single cell line; assay type: cell-based
Description: as §1

[8] = Hydrolysis studies of C,N-chelated complexes and anation by NaCl (1H NMR); assay type: physicochemical; settings: 20% MeOD-d4/80% D2O; equilibrium reached within ~5 min even at 278 K
Description: Hydrolysis Studies. The hydrolysis of complexes [(η^5-C5Me5)Ir(2-phpy)Cl] (ZL47), [(η^5-C5Me4C6H4C6H5)Ir(2-phpy)Cl] (ZL49), [(η^5-C5Me5) Ir(2-phq)Cl] (ZL68), [(η^5-C5Me5) Ir(tpy)Cl] (ZL69), [(η^5-C5Me5)Ir(2-dfphpy)Cl] (ZL74) and [(η^5-C5Me4C6H5)Ir(2-phpy) Cl] (ZL107) in 20% MeOD-d4/80% D2O (v/v) was monitored by ^1H NMR at different temperatures. The presence of methanol ensured the solubility of the complexes.

[9] = system: human ovarian A2780 cancer cells; assay: Cancer cell cytotoxicity, SRB assay; assay type: cell-based; settings: 24 h exposure, 72 h recovery, SRB; read-out: A2780 IC50
Outline: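 Cells plated at 5000/well were dosed on day 3 with Ir^III complexes (0.05–100 μM, from DMSO stocks diluted into saline and medium) for 24 h. After washout they grew for 72 h in fresh medium before SRB protein staining as a survival read-out. Two independent experiments of three replicates each.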

[10] = system: HT-29 cancer cell line; settings: cited from earlier work
[11] = system: human ovarian cancer cell line A2780; settings: cited from earlier work
[12] = system: human ovarian cancer cell line A2780cisR (cisplatin-resistant); settings: cited from earlier work

**Q.** With `Cc1c(C)c(C)[c-](C)c1C.O=S(=O)([O-])C(F)(F)F.[Cl-].[Ir+3].c1cnc2c(c1)ccc1cccnc12` [[(η^5-C5Me5)Ir(phen)Cl](CF3SO3)] as the compound, how does the “in vitro cytotoxic activity towards MCF-7 (in words)” value [1] read?
**A.** inactive

**Q.** For [(Cp*)Rh(2-phenylbipyridyl)Cl]Cl [JS36], which “relative activity against A2780 (in words)” value (“relative activity” below) [2] is on record?
**A.** most active

**Q.** What does the source list for `Cc1c(C)c(C)[c-](-c2ccc(-c3ccccc3)cc2)c1C.[Cl-].[Ir+3].[c-]1ccccc1-c1ccccn1` [ZL49, [(η^5-C5Me4C6H4C6H5)Ir(2-phpy)Cl]]?
**A.** CC50 [3]: 7080 ± 1050 nM; Mean graph midpoint (MID) TGI ([3]; ca. 60 cell lines, 0.01 to 100 μM): 2190 ± 150 nM; GI50 ([3]; ca. 60 cell lines, 0.01 to 100 μM, read-out: Mean graph midpoint (MID) GI50): 710 ± 10 nM; selectivity among tumour type subpanels (in words) ([3]; mean graphs): selective for leukemia, colon cancer, and melanoma; guanine adducts formed [4]: 100%; GI50 [5]: < 200 nM; GI50 [6]: < 200 nM; GI50 [7]: < 200 nM; hydrolysis (in words) [8]: rapid hydrolysis; IC50 [9]: 700 nM

**Q.** Which “in vitro cytotoxic activity towards HT-29 (in words)” value [10] does the source give for `Cc1c(C)c(C)[c-](C)c1C.O=S(=O)([O-])C(F)(F)F.[Cl-].[Ir+3].c1ccc2nc3c4cccnc4c4ncccc4c3nc2c1` [[(η^5-C5Me5)IrCl(dppz)](CF3SO3)] here?
**A.** possess in vitro cytotoxic activity

**Q.** And the “in vitro cytotoxic activity towards MCF-7 (in words)” value [1]?
**A.** possess in vitro cytotoxic activity

**Q.** For `Cc1c(C)c(C)[c-](C)c1C.[Cl-].[Ir+3].c1ccc(-c2nccs2)nc1` [[(η^5-C5Me5)Ir (pyTz)Cl]^+], which “activity towards A2780 (in words)” value [11] is on record?
**A.** inactive

**Q.** What about the “activity towards A2780cisR (in words)” value [12] of the same compound?
**A.** inactive

**Q.** With `Cc1c(C)c(C)[c-](C)c1C.NCCN.O=S(=O)([O-])C(F)(F)F.[Cl-].[Ir+3]` [[(η^5-C5Me5) Ir(en)Cl](CF3SO3)] as the compound, how does the “in vitro cytotoxic activity towards MCF-7 (in words)” value [1] read?
**A.** inactive

**Q.** Which guanine adducts formed [4] does the source give for `Cc1c(C)c(C)[c-](C)c1C.Fc1c[c-]c(-c2ccccn2)c(F)c1.[Cl-].[Ir+3]` [ZL74, [(η^5-C5Me5)Ir(2-dfphpy)Cl]] here?
**A.** 100%

**Q.** What about the “hydrolysis (in words)” value [8] of the same compound?
**A.** rapid hydrolysis

**Q.** And the IC50 [9]?
**A.** 6530 ± 500 nM

**Q.** For “[(Cp^xPh)Rh(2-Phenylbipyridyl)Cl]Cl [JS29]”, which “relative activity” value [2] is on record?
**A.** most active

**Q.** For `CN(C)C(=S)N(C)C.Cc1c(C)c(C)[c-](C)c1C.O=S(=O)([O-])C(F)(F)F.O=S(=O)([O-])C(F)(F)F.[Ir+3].c1ccc2cc3nc4c5cccnc5c5ncccc5c4nc3cc2c1` [[(η^5-C5Me5)Ir((NMe2)2CS)(dppn)](CF3SO3)2], which “in vitro cytotoxic activity towards HT-29 (in words)” value [10] is on record?
**A.** possess in vitro cytotoxic activity

**Q.** What about the “in vitro cytotoxic activity towards MCF-7 (in words)” value [1] of the same compound?
**A.** possess in vitro cytotoxic activity

**Q.** For “[(Cp^xdiPh)Rh(2-phenylbipyridyl)Cl]Cl [JS39]”, which “relative activity” value [2] is on record?
**A.** most active

**Q.** Which guanine adducts formed [4] does the source give for `Cc1c(C)c(-c2ccccc2)[c-](C)c1C.[Cl-].[Ir+3].[c-]1ccccc1-c1ccccn1` (stereo not drawn) [ZL107, [(η^5-C5Me4C6H5)(2-phpy)Cl]] here?
**A.** 100%

**Q.** And the “hydrolysis (in words)” value [8]?
**A.** rapid hydrolysis

**Q.** What about the IC50 [9] of the same compound?
**A.** 2140 ± 500 nM
